From a melting point compilation (Tetko et al.; mined from patent text by program, amines drawn as free bases though some values may be those of a salt)

| melting point [°C] | Compound |
| --- | --- |
| 95 to 97 | COC(C)Cc1ccc(OCCNc2ncnc3ccccc23)c(C)c1 (centres undefined) |
| 105 to 107 | CC=Cc1cccc2c(=O)c(C)c(-c3ccc(C(C)C)cc3)oc12 |
| 68 to 70 | CCN(CC)c1nc(Cl)nc2ccccc12 |
| 96 to 97 | Cc1cc(CCCCCOc2ccc(-c3nc(C)c(C)s3)cc2)on1 |
| 287 to 290 | O=C(O)c1ccc(/C=C/c2cnc3ccccc3c2)cc1 |
| 248 to 249 | O=C(O)Cn1c(-c2ccc(Cl)c(Cl)c2)nc2cccnc21 |
| 119 to 120 | COc1cc(C=O)ccc1OCc1coc(-c2ccccc2)n1 |
| 43 to 45 | ClCc1nc(-c2ccccc2)c(-c2ccccc2)o1 |
| 122 | COc1ccc(OCC2CO2)c(C(=O)Nc2cccc3[nH]ccc23)c1 (centres undefined) |
| 141 to 142 | Cc1nc(-c2ccccc2)cc(-c2cccc([N+](=O)[O-])c2)c1C(=O)NCCN1CCOCC1 |
| 146 | COc1ccc(CN(C)CCCOc2ccc(NC(=O)c3cccc4c(=O)c5cccc(C)c5[nH]c34)c(C)c2)cc1OC |
| 144 | CC(=O)Nc1sccc1C(=O)c1ccccc1F |
| 269 | CCCCn1c(=O)c(=O)[nH]c2c3ccccc3ccc21 |
| 118 to 120 | CNc1nc2ccc(CCc3ccccn3)cc2s1 |
| 165 to 166 | CS(=O)(=O)c1ccc(-c2cnn(CC(F)(F)F)c(=O)c2-c2ccc(F)c(Cl)c2)cc1 |
| 60 | CCCCCc1ccc(-c2ccc(CCc3ccc(F)cc3)cc2)cc1 |

| melting point [°C] | Compound |
| --- | --- |
| 162 to 164 | Cc1nn(-c2cc3nc(S(=O)Cc4ccccc4)sc3cc2F)c(=O)n1C (centres undefined) |
| 130 to 132 | CCCN1CCN(c2cccc3ccc(NC(=O)c4ccc(Cl)cc4)cc23)CC1 |
| 171 to 172 | O=C(O)CCc1oc(-n2cccn2)nc1-c1ccc(Cl)cc1 |
| > 200 | O=c1[nH]c2scnc2c2ccccc12 |
| 234 | O=C1NCCc2c(-c3ccccc3CCCO)[nH]c3cccc1c23 |
| 95 to 99 | Cn1nc(CO)cc1-c1ccccc1 |
| 183 to 184 | CS(=O)(=O)c1ccc(-c2cnn(CC(=O)c3csc4ccccc34)c(=O)c2-c2ccc(F)cc2)cc1 |
| 150 to 151 | O=C(Nc1nc(=O)n(S(=O)(=O)c2ccccc2)cc1F)c1ccccc1 |
| 125 | Cc1ccc(C(=O)N2CCc3cc(S(=O)(=O)N4CC(c5ccccc5)NC4=O)ccc32)cc1 (centres undefined) |
| 156 to 159 | CC(=O)OCC(=O)NCCCn1c(-c2ccc(Br)cc2)csc1=Nc1ccccc1 |
| 179 to 181 | CC(=O)Oc1cc2c(c3ccccc13)Nc1ccccc1S2=O (centres undefined) |
| 168 to 170 | CON=C(c1nnn[nH]1)c1ccccc1COc1cc(C)ccc1C |
| 153 to 154 | CCOC(=O)c1sc(SC)c2c1CCc1sc(-c3ccccc3)nc1-2 |
| 256 to 265 | O=c1oc2cccc(O)c2c(O)c1-c1ccccc1 |
| 175 to 179 | Cn1cc(C(=O)NCc2ccc(Cl)cc2)c(=O)c2cc(CCCO)cc(OCCO)c21 |

Second part, the compound before the results:

| Compound | melting point [°C] |
| --- | --- |
| O=C(N1CCOc2ccccc21)C(F)(F)F | 58 to 60 |
| Cc1nsc(-c2ccc(N3CCN(c4cccc(C(F)(F)F)c4)CC3)nn2)n1 | 173 |
| COc1cccc([C@H]2O[C@H](CC(=O)Nc3cccc(C(=O)O)c3C)C(=O)N(CC(C)(C)COC(C)=O)c3ccc(Cl)cc32)c1OC | 139 to 142 |
| Nc1ncnc2c(C3OC(CO)C(O)C3O)[nH]nc12 (centres undefined) | 141 to 142 |
| CCOC(=O)COc1c(Cl)c(Cl)c2c(-c3ccccc3F)noc2c1Cl | 140 to 143 |
| Oc1ccc(N2CCN(n3ccnc3)CC2)cc1 | 282 |
| O=C1CCN(C2c3ccccc3C=Cc3ccccc32)CC1C(c1ccccc1)c1ccccc1 (centres undefined) | 175 to 178 |
| CCN1C(=O)C(=O)c2cc(S(=O)(=O)N(C)C)ccc21 | 165 to 167 |
| Oc1ccc(C2(c3ccc(O)cc3)CCCCCC2)cc1 | 208 to 209 |
| Cc1cc(-c2ccc(C(F)(F)F)c(C)c2)cc(-c2cccc(-c3cccc(S(N)(=O)=O)c3)n2)n1 | > 250 |
| CCOC(=O)c1cnoc1-c1cccc(Cl)c1 | 75 to 77 |
| CC(C)c1nc(COC(N)=O)n(CCOC(N)=O)c1Sc1cc(Cl)cc(Cl)c1 | 159 to 161 |
| Cc1nccn2c(-c3ccnc(NCCC(C)(C)O)n3)c(-c3ccc(F)cc3F)nc12 | 175 |
| Nc1cc(-n2nc3ccc(Cl)cn3c2=O)c(F)cc1Cl | 247 to 250 |
| CCCC1CCC(c2ccc(-c3ccc(N=C=S)cc3)cc2)CC1 (centres undefined) | 149 |
| COc1ccc(-c2noc3c2CCCC(C(=O)O)C3)cc1 (centres undefined) | 194 to 196 |
| CCOC(=O)c1ccc2c(CCN)c[nH]c2c1 | 169 to 172 |
| OCc1nn(C(c2ccccc2)(c2ccccc2)c2ccccc2)c2ccccc12 | 192 to 193 |
| COc1cc(-c2csc(N(CCC3CCCCC3)C(=O)c3cc4ccccc4n3CC(=O)O)n2)c(OC)cc1C | 198 |
| Cc1c(C)c2c(c(C)c1OCC=Cc1ccccc1)C(c1ccc(C(C)C)cc1)C(C)(C)O2 (centres undefined) | 106 to 107 |
| NCC(CN)(CN)CN | 70 |
| Fc1ccc2occ(N3CCN(C4CCN(c5ccc(F)c6cccnc56)CC4)CC3)c2c1 | 187 to 189 |
| C=CCOc1cccc(C2=NNC(=O)CC2)c1 | 111 to 113 |

| Compound | melting point [°C] |
| --- | --- |
| Cc1nnc2n1-c1sc(CC(=O)N3CCCCC3)cc1C(c1ccccc1Cl)=NC2C (centres undefined) | 182 to 183 |
| CC(C)(C)OC(=O)N1CCN(c2ccc(OCC3(C)Cn4cc([N+](=O)[O-])nc4O3)cc2)CC1 (centres undefined) | 212 to 214 |
| CCOC(=O)c1c[nH]c2c(cc(Cl)c3c(=O)c(C(=O)OCC)c[nH]c32)c1=O | 285 to 288 |
| N#CC(N)=C(C#N)N=Cc1cnn(-c2c(Cl)cc(OC(F)(F)F)cc2Cl)n1 | 199 to 201 |
| CCOC(=O)c1c(CN(C)c2ccccc2)nc2cc(OC)c(OC)cc2c1-c1ccc(OC)c(OC)c1 | 194 to 196 |
| O=C(Nc1cnccn1)N1CCN(c2nc(-c3ccccc3)cs2)CC1 | 134 to 135 |
| CC(C)(C)OC(=O)N1CCc2cc3ccccc3n2CC1 | 129 to 132 |
| CC(/C=C/CC(C)c1cc(C(C)(C)C)cc(C(C)(C)C)c1)=C\C(=O)O (centres undefined) | 127 to 128 |
| CC(C)(N)CNCCCCCCNCC(C)(C)N | 25 to 35 |
| NC(=O)NC(=O)C(Cl)(Cl)CC1(c2cc(Cl)cc(Cl)c2)CO1 (centres undefined) | 186 to 189 |
| O=C(O)CCCCNC(=O)Cc1ccc2c(c1)CC(NS(=O)(=O)c1ccc(Cl)cc1)C2 (centres undefined) | 156 to 158 |
| CN(c1ccc(OCCCCBr)cc1)S(=O)(=O)c1ccc(C(F)(F)F)cc1 | 91 to 92 |
| CCCCS(=O)(=O)NC(CNS(=O)(=O)c1cccc(C(=O)C2CCC3(CCNCC3)CC2)c1)C(=O)O (centres undefined) | 225 to 235 |
| N#CCOc1cc2c(cc1C#Cc1ccccc1)NC(=O)CC(c1cccc(C#N)c1)=N2 | 212 |
| COCOc1ccc(-c2ccc(OCOC)c(F)c2)cc1F | 76.3 to 77.3 |
| COC(=O)C1=Cc2cc(-c3ccc(N4CCCCC4)cc3)ccc2S(=O)(=O)CC1 | 202 to 204 |
| CCCCCCCCC(=O)COS(=O)(=O)c1c(C)c(C)cc(C)c1C | 36 to 37.5 |
| Cc1nc(C=CNC(=O)c2cccc(C(F)(F)F)c2)n[nH]1 | 153 to 154 |
| CCOC(=O)n1cc(C#N)c(-c2ccc(F)c(Cl)c2F)c1 | 132 |
| CCCc1cc(O)nc(C(Cl)(Cl)Cl)n1 | 107 to 110 |
| COC(=O)c1ccc(SC)c([N+](=O)[O-])c1 | 118 to 120 |
| CC1(C)CC(C)(c2ccc(Oc3cccc([N+](=O)[O-])c3)cc2)c2cc(Oc3cccc([N+](=O)[O-])c3)ccc21 (centres undefined) | 90 to 92 |
| COc1ccc(N2CCOCC2)c2sc(NC(=O)N3CCC(C)(O)CC3)nc12 | 236 |

| Compound | melting point [°C] |
| --- | --- |
| OCC1OC(n2cnc3c(-c4ccccc4)ncnc32)C(O)C1O (centres undefined) | 224 to 225 |
| CCOC(=O)C1Cn2c(nc3c(cnn3C)c2=O)S1 (centres undefined) | 159 |
| O=c1ncc(Br)cn1CC(O)C(Cl)(Cl)Cl (centres undefined) | 210 to 212 |
| CN(C(=O)C(C)(C)c1cc(C(F)(F)F)cc(C(F)(F)F)c1)c1cnc(NCCO)cc1-c1ccccc1Cl | 117 to 118 |
| COc1cc(Nc2nccc(-c3ccncc3)n2)cc(OC)c1OC | 205 |
| CC(C)(C)c1ccc(C#N)c(NC(=O)Nc2cccnc2)c1 | 164 to 166 |
| Cc1nc(-c2cccnc2)sc1-c1ccnc(Nc2cc(Cl)c(N3CCOCC3)c(Cl)c2)n1 | 276 to 278 |
| Cc1ccc(C(=O)Nc2nc(-c3ccccc3)c(-c3nc4ccccc4c(=O)n3-c3ccc(C)cc3)s2)cc1 | 217 to 218 |
| COc1cc(I)c(I)cc1OC | 134 to 136 |
| Cc1ccc(C(=O)c2c(C)c(C(=O)O)c(CC(=O)O)n2C)cc1 | 229 to 230 |
| CCCc1cccc(C(C)(C)C)c1O | 89 to 90 |
| Cc1cccc(C(=O)C2=C(O)C(=O)N(c3ccc(C)nn3)C2c2ccc(C(C)C)cc2)c1 (centres undefined) | 245 to 250 |
| CC(C)(C)C(NC(=O)c1ccc(-c2ccco2)cc1)Nc1c(Nc2cccnc2)c(=O)c1=O (centres undefined) | 230 to 232 |
| CCOC(=O)c1cn(-c2nnnn2C)c2nc(Cl)c(F)cc2c1=O | 210 to 215 |
| FC(F)(F)c1nc2ccnc(Cl)n2n1 | 47 to 48 |
| O=C(c1ccccc1SSc1ccccc1C(=O)N1CCC(O)C1)N1CCC(O)C1 (centres undefined) | 168 to 172 |
| COc1cc(Oc2cccc(C(F)(F)F)c2)nc(C(=O)NN=C(C)C)c1 | 134 to 136 |
| Cc1c(Sc2ccc(Cl)cc2)nn(-c2ccc(Oc3ccccc3)cc2)c(=O)c1C#N | 164 |
| CC(C)CNC1=NS(=O)(=O)c2sc(Cl)cc2N1 | 262 to 264 |
| O=C1CCCc2c1ccc(O)c2O | 191 to 194 |
| COC1C=C(C)C2(OC(=O)c3ccc([N+](=O)[O-])cc3)CC(C)(C)C1O2 (centres undefined) | 95 to 95.5 |
| COc1ccc(Oc2ccc(C(=O)C(=O)c3ccc(Oc4ccc(OC)cc4)cc3)cc2)cc1 | 121 to 122 |
